Data taken from paper PMC7139703, “Thiopurine Derivative-Induced Fpg/Nei DNA Glycosylase Inhibition: Structural, Dynamic and Functional Insights” (International Journal of Molecular Sciences, 2020).
Where two headings read alike, the source gives them in different places.

Legend:
[1] = target: T1, LlFpg/DNA complex C1 (Lactococcus lactis subsp. cremoris, UniProt P42371); experiment: EMSA, Fpg DNA binding to 14-mer [THF:C] duplex, complex C1 (lesion recognition complex, Fpg/DNA 1/1); details: homogeneous reduced or disulfide form in 50 mM sodium phosphate; 14-mer [THF:C]; read-out: IC50^B (Fpg DNA binding), homogeneous redox forms
T1 construct: made in house; host or cells: E. coli BH540 (fpg defective)
Text: (§1) To complement this study, we examined the effect of TXn on the binding of Fpg to a short DNA duplex containing a tetrahydrofuran (THF), a non-cleavable AP site analog. The enzyme specifically recognizes THF and forms a stable abortive complex with DNA [18, 34, 35, 36]. […] A representative titration experiment (with and without TCEP) of the 14-mer [THF:C] Fpg formed two stable complexes with this short DNA probe that were easily observed by EMSA: a high-affinity complex C1 corresponding to the lesion recognition complex (LRC), with nanomolar affinity, and a complex C2 only observed at higher Fpg concentrations. C2 results in C1 titration by a second Fpg molecule. This finding illustrates that the crystal structure of Fpg bound to 8-oxoG-carbanucleotide-containing DNA [38] (Figure S5). The stability of each preformed complex was then examined by EMSA in the presence of 2TX or TXn. […] The enzyme inactivation mediated by 2TX through ZnF oxidation that directly affects the DNA binding properties of the enzyme is also in agreement with this last observation.
Figure 2 The effect of 2TX and TXn on Fpg DNA binding to abasic site-containing DNA. A 14-mer DNA duplex containing a tetrahydrofurane (THF) site as an abasic site analog was incubated with a limiting Fpg concentration (0.25 nM) with and without increasing concentrations of TXn. Incubation mixtures were then analyzed by electrophoretic mobility shift assay (EMSA), as described in the ‘Materials and Methods’. (a) Titration experiments with (+) and without (-) 2 mM tris(2-carboxyethyl)phosphine hydrochloride (TCEP) C1 and C2 are for the [1/1] and [2/1] Fpg/DNA complexes, respectively (see detailed in the text). (b) Fpg DNA binding concentration-dependence for 2TX and the more efficient TXn inhibitors. A representative EMSA autoradiography with 0.25 nM of Fpg alone (lane no) and 0.5, 2.5, 5, 10, 20, 40, 50, 250, 1000 µM is shown in the upper panel. IC50app^B corresponds to the TXn amount needed to halve the C1 complex formation and was extracted from the dose-response curves (lower panel; Table 1).
(§2) The DNA binding activity was measured using EMSA [37]. Briefly, 0.1 nM of the 5′-labeled 14-mer [THF:C] (see above) was incubated with the enzyme at 4 °C for 30 min in 25 mM HEPES/NaOH (pH 7.5), 150 mM NaCl, 5% glycerol, 0.1 mg/mL BSA and 8% DMSO. The incubation mixture was then loaded onto a native 10% polyacrylamide gel (Acryl/Bis 19/1) and electrophoresed at 25 V/cm for 90 min at 4 °C. After electrophoresis, the gels were dried and exposed overnight for autoradiography using a Typhoon imager and quantified with ImageQuant software. To evaluate the inhibitor effect of 2TX/TXn on the DNA binding activity of each Fpg/Nei enzyme, we first determined the experimental conditions required to bind 50% of the DNA probes without an inhibitor in the presence of 8% DMSO (limiting enzyme concentration). Under these conditions, we obtained the half-maximal DNA binding 0.25, 7 and 5 nM of Fpg, hNeil1 and mvNei1. We used this limited enzyme concentrations to evaluate the inhibitor effect of 2TX/TXn on the enzyme DNA binding activity. This effect was determined by the addition of the thio-compound in the pre-equilibrium mixture of the enzyme and DNA probe (30 min) and incubated for an additional 30 min at 4 °C. For the best inhibitors of Fpg, a dose-response curve was established from at least three independent experiments and the IC50 was determined (IC50^B, Table 1).

[2] = target: T2, mvNei1 (Acanthamoeba polyphaga mimivirus, UniProt Q5UQ00); experiment: mvNei1 DNA glycosylase/AP lyase activity assay on DHU:G 24-mer duplex; type: biochemical; details: for inhibition of mvNei1 by homogeneous disulfide forms: Figure 6d
T2 construct: 6His (C); made in house; host or cells: E. coli Rosetta2 (DE3)
Description: (§3) Figure 4 Comparative analysis of the effect of 2TX and TXn on Fpg/Nei DNA glycosylases. Enzyme activities were measured as described in the Figure 1 legend using […] of a 5′-[^32P]-24-mer DNA duplex containing either an 8-oxoG opposite C for LlFpg or a […] (DHU) opposite G for hNeil1 and mvNei1. The DNA probe was incubated with the indicated protein concentration and 0.2 mM TXn compounds in the presence or absence of 1 mM dithiothreitol (DTT) and TCEP (a representative experiment is illustrated by the upper histograms). The DNA probe for EMSA was 0.1 nM of 5′-[^32P]-24-mer DNA duplex containing THF with LlFpg and mvNei1 (bottom panels: gel autoradiography) with the indicated conditions and as described in ‘Materials and Methods’.
(§4) Fpg, hNeil1 and mvNei1 are bifunctional DNA glycosylases associated with concerted DNA glycosylase activity (cleavage of the N-glycosidic bond between the base lesion and the C1′ of the deoxyribose) and AP lyase activity that comprises the successive cleavage of the phosphodiester bonds at the 3′ and 5′ of the resulting abasic (AP) site, respectively (β, δ-elimination). Thus, AP sites that result from the excision of the damaged base are quantitatively converted into one nucleoside gap by these enzymes. The DNA glycosylase/AP lyase activity of each enzyme was measured by incubating 20 nM of 24-mer DNA duplexes ([OG:C] and [DHU:G] for Fpg and hNeil1/mvNei1, respectively) 5′-labeling on the damaged strand (see above) with 2 nM of Fpg, or mvNei1 for 15 min or, with 20 nM of hNeil1 for 30 min at 37 °C in 10 mM Tris-HCl, pH 7.6, 150 mM NaCl, 1 mM EDTA, 0.1 mg/mL BSA and 8% DMSO. The reaction was stopped by the addition of 1 volume of formamide loading buffer (96% formamide, 20 mM Tris/HCl pH 8.0 and 2 mM Na2EDTA), heated at 80 °C for 2 min and then analyzed by 20% Urea-PAGE, as previously described. […] Under these conditions, only 50% of the substrate is converted to the cleavage product (limiting enzyme concentration conditions). For an initial evaluation of the inhibitory effect, 40 µM of 2TX/TXn was used. The thio-compound was added to the reaction mixture before the final addition of the enzyme (competition condition). For the best identified inhibitors, a dose-response curve was generated and IC50^A determined (Figure 1 and Table 1).

[3] = target: T3, hNeil1 (Homo sapiens, UniProt Q96FI4); experiment: hNeil1 DNA glycosylase/AP lyase activity assay on DHU:G 24-mer duplex; type: biochemical; set-up: Overproduction was performed as described above for full length hNeil1; 6His (C); made in house; host or cells: E. coli Rosetta2 (DE3); details: for inhibition of hNeil1 by homogeneous disulfide forms: Figure 6d
Description: as §3, §4
Target sequence in this assay (Q96FI4 whole entry): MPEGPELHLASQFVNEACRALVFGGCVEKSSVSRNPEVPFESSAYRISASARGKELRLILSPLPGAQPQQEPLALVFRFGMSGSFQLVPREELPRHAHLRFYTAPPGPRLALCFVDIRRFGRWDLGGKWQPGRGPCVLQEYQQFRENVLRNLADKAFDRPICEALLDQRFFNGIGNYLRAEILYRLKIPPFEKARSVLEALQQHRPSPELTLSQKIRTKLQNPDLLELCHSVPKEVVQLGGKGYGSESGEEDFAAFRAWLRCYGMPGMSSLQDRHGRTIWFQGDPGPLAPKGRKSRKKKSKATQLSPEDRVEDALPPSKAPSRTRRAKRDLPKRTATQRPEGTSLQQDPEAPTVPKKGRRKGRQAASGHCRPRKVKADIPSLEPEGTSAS

[4] = target: T4, LlFpg (Lactococcus lactis subsp. cremoris, UniProt P42371); experiment: LlFpg 8-oxoG-DNA glycosylase/AP lyase activity assay (Urea-PAGE radioassay); type: biochemical; details: for inhibition of Fpg catalytic activity by reduced forms: 400 µM, homogeneous reduced form
T4 construct: made in house; host or cells: E. coli BH540 (fpg defective)
Description: Figure 1 Effect of 2-thioxanthine (2TX)-derivatives on Fpg activity. A total of 20 nM of 5′-[^32P]-8-oxoG-containing 24-bp DNA duplex (labeled on the damaged strand) was incubated with 2 nM of LlFpg alone (dimethyl sulfoxide (DMSO) control) or with the indicated 2TX and 2TX-derivatives (TXn) concentrations, as described in the “Materials and Methods” section. (a) Screening of TXn for Fpg inhibition. Averages and standard deviations were obtained from at least three independent experiments. Mono- and di-thiolated compounds are highlighted in red and blue, respectively. (b) Dose-response curves for best inhibitors. Each data point represents the mean value obtained from at least three independent measurements.
as §4

[5] = target: T5, LlFpg/DNA complex C2 (Lactococcus lactis subsp. cremoris, UniProt P42371); experiment: EMSA, Fpg DNA binding to 14-mer [THF:C] duplex, non-specific complex C2 (Fpg/DNA 2/1); details: 2 mM TCEP, 6.7-fold molar excess over compound; Figure 3
T5 construct: made in house; host or cells: E. coli BH540 (fpg defective)
T5 sequence (P42371 2-273 limits assumed): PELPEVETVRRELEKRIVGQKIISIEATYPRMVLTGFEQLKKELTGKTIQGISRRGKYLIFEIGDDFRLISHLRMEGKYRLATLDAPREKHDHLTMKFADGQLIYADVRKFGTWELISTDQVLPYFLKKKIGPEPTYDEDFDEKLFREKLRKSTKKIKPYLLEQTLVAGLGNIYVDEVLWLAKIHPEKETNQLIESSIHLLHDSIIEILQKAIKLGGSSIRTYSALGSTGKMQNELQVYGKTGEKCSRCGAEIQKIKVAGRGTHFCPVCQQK
Text: as §1
The inhibitor concentrations that induced the loss of the half-maximal binding (IC50app^B) were determined from these curves and are reported in Table 1. IC50app^B compared well with IC50app^A. As observed above for the enzyme activity, strong reducers, such as TCEP, abolished the negative effects of 2TX and TXn on Fpg/DNA complex stability and formation. These findings again indicate that inhibition by thio-compounds essentially relies on the oxidation of the Fpg ZnF (for an example, see experiment with TX19, Figure S4). […] This troubling and unexpected observation led us to evaluate this effect with the TXn small library compounds. To prevent a side effect due to a possible partial reduction by TCEP, we performed EMSA in the presence of a 6.7-fold molar excess of TCEP with respect to 2TX and TXn after complex formation (Figure 3).
Figure 3 Impact of TXn on the non-specific Fpg/DNA complex C2 stability in highly reducing conditions. EMSA was performed as described in the ‘Material & Methods’, except TCEP was added at a 2 mM final concentration in each binding assay. (a) Representative experiment at 0.3 mM 2TX and more efficient TXn; (b) Dose-response with the best TXn. Upper panel: Representative EMSA experiment with TX10. Lower panel: Dose-response curves with the indicated TXn.
as §2, with “1). […]” for “1).”
Rieux et al. Thiopurine derivative-induced Fpg/Nei DNA glycosylase inhibition:
structural, dynamic and functional insights
Figure S6. […]

[6] = target: T2, mvNei1; experiment: EMSA, mvNei1 DNA binding to THF-containing DNA duplex; details: Figure 4
Description: as §3, with “The DNA probe for EMSA was 0.1 nM of 5′-[^32P]-24-mer DNA duplex containing THF with LlFpg and mvNei1 (bottom panels: gel autoradiography) with the indicated conditions and as described in ‘Materials and Methods’.” left out
The DNA binding activity was measured using EMSA [37]. […] After electrophoresis, the gels were dried and exposed overnight for autoradiography using a Typhoon imager and quantified with ImageQuant software. To evaluate the inhibitor effect of 2TX/TXn on the DNA binding activity of each Fpg/Nei enzyme, we first determined the experimental conditions required to bind 50% of the DNA probes without an inhibitor in the presence of 8% DMSO (limiting enzyme concentration). […] This effect was determined by the addition of the thio-compound in the pre-equilibrium mixture of the enzyme and DNA probe (30 min) and incubated for an additional 30 min at 4 °C. For the best inhibitors of Fpg, a dose-response curve was established from at least three independent experiments and the IC50 was determined (IC50^B, Table 1).

[7] = target: T3, hNeil1; experiment: EMSA, hNeil1 DNA binding to THF-containing DNA duplex; details: Figure 4
Target sequence in this assay (Q96FI4 2-290 limits assumed): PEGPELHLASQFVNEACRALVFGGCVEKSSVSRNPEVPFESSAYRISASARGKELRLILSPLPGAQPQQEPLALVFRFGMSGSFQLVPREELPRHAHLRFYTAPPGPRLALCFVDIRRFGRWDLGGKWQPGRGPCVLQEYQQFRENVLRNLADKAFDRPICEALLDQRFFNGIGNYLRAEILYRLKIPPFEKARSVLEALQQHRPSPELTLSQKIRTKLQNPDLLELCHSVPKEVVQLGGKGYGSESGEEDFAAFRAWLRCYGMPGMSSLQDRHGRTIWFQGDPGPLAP

[8] = homogeneous reduced or disulfide form dissolved in 50 mM sodium phosphate, no DMSO stock, read-out: IC50^A (Fpg catalysis), homogeneous redox forms
[9] = 1 mM TCEP (DTT to a lesser extent), Figure 4

T2 sequence (Q5UQ00 whole entry): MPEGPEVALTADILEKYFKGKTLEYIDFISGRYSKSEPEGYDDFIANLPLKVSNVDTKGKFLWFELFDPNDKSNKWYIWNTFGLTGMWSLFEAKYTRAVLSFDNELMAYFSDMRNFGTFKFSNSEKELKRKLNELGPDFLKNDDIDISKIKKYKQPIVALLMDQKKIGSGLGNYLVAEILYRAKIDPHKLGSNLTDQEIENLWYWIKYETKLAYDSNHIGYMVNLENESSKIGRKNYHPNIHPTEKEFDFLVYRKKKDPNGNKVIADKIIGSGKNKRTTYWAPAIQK

SMILES: O=c1[nH]c(SSc2nc3[nH]cnc3c(=O)[nH]2)nc2[nH]cnc12 [Compound 2TXOx]
- IC50 [1]: 34 ± 2 µM
- inhibition of mvNei1 by homogeneous disulfide forms [2]: neither 2TXOx nor TX14Ox inhibited
- inhibition of hNeil1 by homogeneous disulfide forms [3]: neither 2TXOx nor TX14Ox inhibited
- IC50 [4, 8]: 5.5 µM

SMILES: O=c1[nH]c(=S)[nH]c2[nH]cnc12 [Compound 2TXRed, reference compound]
- IC50 [1]: > 1000 µM
- inhibition of Fpg catalytic activity by reduced forms [4]: did not inhibit the enzyme
- IC50 [4, 8]: > 1000 µM

SMILES: Cc1nc(S)c2[nH]cnc2n1 [TX4]
- effect on Fpg 8-oxoG-DNA glycosylase/AP lyase activity (screening) ([4]; 40 µM compound, Figure 1a): drastically decreased the inhibitory effect

SMILES: COc1nc(C(F)(F)F)nc2[nH]cnc12 [TX10]
- destabilization of complex C2 in highly reducing conditions [5]: among the best C2 destabilizers

SMILES: CNc1nc(C(F)(F)F)nc2[nH]cnc12 [TX11]
- destabilization of complex C2 in highly reducing conditions [5]: among the best C2 destabilizers

SMILES: O=c1[nH]c2nc(SSc3nc4[nH]c(=O)[nH]c4c(=O)[nH]3)[nH]c(=O)c2[nH]1 [TX14Ox]
- IC50 [1]: 26 ± 1 µM
- inhibition of mvNei1 by homogeneous disulfide forms [2]: neither 2TXOx nor TX14Ox inhibited
- inhibition of hNeil1 by homogeneous disulfide forms [3]: neither 2TXOx nor TX14Ox inhibited
- IC50 [4, 8]: 2.7 µM

SMILES: O=c1[nH]c2[nH]c(=S)[nH]c(=O)c2[nH]1 [TX14Red]
- IC50 [1]: > 1000 µM
- inhibition of Fpg catalytic activity by reduced forms [4]: did not inhibit the enzyme
- IC50 [4, 8]: > 1000 µM

SMILES: O=c1[nH]c2[nH]c(=S)[nH]c(=S)c2[nH]1 [TX16]
- effect on mvNei1 catalytic activity ([2]; 0.2 mM compound, Figure 4): apparent inhibitory effects
- inhibition of mvNei1 DNA binding and catalytic activities in the presence of TCEP [2, 9]: suppressed
- IC50 ([2]; catalytic activity at 37 °C, compound stock in DMSO, DHU:G 24-mer, read-out: IC50app^A (Fpg/Nei enzyme catalysis) mvNEI1): 14 ± 1 µM
- effect on hNeil1 catalytic activity ([3]; 0.2 mM compound, Figure 4): apparent inhibitory effects
- inhibition of hNeil1 DNA binding and catalytic activities in the presence of TCEP [3, 9]: suppressed
- IC50 ([3]; catalytic activity at 37 °C, compound stock in DMSO, DHU:G 24-mer, read-out: IC50app^A (Fpg/Nei enzyme catalysis) hNEIL1): 21 ± 1 µM
- effect on mvNei1 DNA binding activity [6]: apparent inhibitory effects
- IC50 ([4]; catalytic activity at 37 °C, compound stock (redox mixture) in DMSO, 20 nM 8-oxoG:C 24-mer, 2 nM LlFpg, read-out: IC50app^A (Fpg/Nei enzyme catalysis) LlFpg): 41 ± 7 µM
- effect on hNeil1 DNA binding activity [7]: apparent inhibitory effects
